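Five concentrations, 48 hours, 96-well plates. TGI is the concentration that stops growth completely.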
What was measured:
Experiment in all cases: inhibition of tumour cell growth, NCI panel, 48 h
[1] = tested on: UO-31 renal
[2] = tested on: HCT-15 colon
[3] = tested on: 786-0 renal
[4] = tested on: A549 NSCLC
[5] = tested on: PC-3 prostate
[6] = tested on: NCI-H23 lung
[7] = tested on: U251 CNS
[8] = tested on: CCRF-CEM leukemia
[9] = tested on: NCI-H226 lung
[10] = tested on: MOLT-4 leukemia
[11] = tested on: MALME-3M melanoma
[12] = tested on: SF-268 CNS
[13] = tested on: OVCAR-5 ovarian
[14] = tested on: NCI-H522 lung
[15] = tested on: MDA-N
[16] = tested on: OVCAR-4 ovarian
[17] = tested on: SK-MEL-2 melanoma
[18] = tested on: LOX IMVI melanoma
[19] = tested on: DU-145 prostate
[20] = tested on: RXF 393 renal
[21] = tested on: M14 melanoma
[22] = tested on: K-562 leukemia
[23] = tested on: SK-OV-3 ovarian
[24] = tested on: NCI-H460 lung
[25] = tested on: TK-10 renal
[26] = tested on: KM12 colon
[27] = tested on: BT-549 breast
[28] = tested on: SR leukemia
[29] = tested on: HOP-92 NSCLC
[30] = tested on: UACC-257 melanoma
[31] = tested on: SW-620 colon
[32] = tested on: OVCAR-8 ovarian
[33] = tested on: HCC-2998 colon
[34] = tested on: EKVX NSCLC
[35] = tested on: SF-295 CNS
[36] = tested on: SNB-75 CNS
[37] = tested on: SNB-19 CNS
[38] = tested on: SF-539 CNS
[39] = tested on: ACHN renal
[40] = tested on: MDA-MB-435
[41] = tested on: HT29 colon
[42] = tested on: SN12C renal
[43] = tested on: OVCAR-3 ovarian
[44] = tested on: HS 578T breast
[45] = tested on: HL-60(TB) leukemia
[46] = tested on: MCF7 breast
[47] = tested on: HOP-62 NSCLC
[48] = tested on: T-47D breast
[49] = tested on: HCT-116 colon
[50] = tested on: UACC-62 melanoma
[51] = tested on: A498 renal
[52] = tested on: MDA-MB-231 breast
[53] = tested on: COLO 205 colon
[54] = tested on: CAKI-1 renal
[55] = tested on: SK-MEL-5 melanoma
[56] = tested on: NCI/ADR-RES ovarian
[57] = tested on: RPMI-8226 leukemia
[58] = tested on: IGROV1 ovarian
[59] = tested on: SK-MEL-28 melanoma

In the case of `CC#CCCCC1(C)CCNC1=S` (stereo unspecified), the TGI [1] is reported as > 10 µM, the TGI [2] is reported as > 10 µM and the TGI [3] is reported as > 10 µM. For the same molecule, the TGI [4] was > 10 µM, the TGI [5] was > 10 µM and the TGI [6] was > 10 µM. For the same molecule, the TGI [7] was > 10 µM, the TGI [8] was > 10 µM and the TGI [9] was > 10 µM. The TGI [10] was > 10 µM, the TGI [11] was > 10 µM and the TGI [12] was > 10 µM. For the same molecule, the TGI [13] was > 10 µM, the TGI [14] was > 10 µM and the TGI [15] was > 10 µM. For the same molecule, the TGI [16] was > 10 µM, the TGI [17] was > 10 µM and the TGI [18] was > 10 µM. The TGI [19] was > 10 µM, the TGI [20] was > 10 µM and the TGI [21] was > 10 µM. For the same molecule, the TGI [22] was > 10 µM, the TGI [23] was > 10 µM and the TGI [24] was > 10 µM. The TGI [25] was > 10 µM, the TGI [26] was > 10 µM and the TGI [27] was > 10 µM. For the same molecule, the TGI [28] was > 10 µM, the TGI [29] was > 10 µM and the TGI [30] was > 10 µM. For the same molecule, the TGI [31] was > 10 µM, the TGI [32] was > 10 µM and the TGI [33] was > 10 µM. The TGI [34] was > 10 µM, the TGI [35] was > 10 µM and the TGI [36] was > 10 µM. The TGI [37] was > 10 µM, the TGI [38] was > 10 µM and the TGI [39] was > 10 µM. The TGI [40] was > 10 µM, the TGI [41] was > 10 µM and the TGI [42] was > 10 µM. For the same molecule, the TGI [43] was > 10 µM, the TGI [44] was > 10 µM and the TGI [45] was > 10 µM. The TGI [46] was > 10 µM.
`COc1cc2c[n+](C)c3c4cc(OC)c(OCc5ccccc5)cc4c(OCc4ccccc4)cc3c2cc1OC` was tested, and the TGI [1] was > 100 µM, the TGI [47] was 39.3 µM and the TGI [2] was > 100 µM. For the same molecule, the TGI [48] was 21.6 µM, the TGI [49] was 22 µM and the TGI [50] was 10.4 µM. For the same molecule, the TGI [3] was 35.5 µM, the TGI [51] was > 100 µM and the TGI [4] was > 88.8 µM. The TGI [5] was 11.1 µM, the TGI [6] was 20.5 µM and the TGI [7] was 12.9 µM. It also gave a TGI [8] of 72.4 µM, a TGI [9] of 43.9 µM and a TGI [10] of 14.2 µM. It also gave a TGI [52] of 18.4 µM, a TGI [11] of 10.7 µM and a TGI [12] of 17.4 µM. For the same molecule, the TGI [13] was > 100 µM, the TGI [14] was 3.4 µM and the TGI [53] was 2.97 µM. For the same molecule, the TGI [15] was 12 µM, the TGI [54] was > 77.3 µM and the TGI [16] was > 55 µM. For the same molecule, the TGI [55] was 6.77 µM, the TGI [17] was 6.29 µM and the TGI [56] was > 100 µM. For the same molecule, the TGI [18] was 18 µM, the TGI [19] was 45.7 µM and the TGI [57] was > 86 µM. For the same molecule, the TGI [20] was 41.1 µM, the TGI [21] was 21.6 µM and the TGI [22] was > 25 µM. The TGI [23] was > 52.8 µM, the TGI [24] was > 100 µM and the TGI [58] was 13.2 µM. It also gave a TGI [25] of 79 µM, a TGI [26] of 23.8 µM and a TGI [27] of 9.05 µM. The TGI [28] was 6 µM, the TGI [29] was 8.51 µM and the TGI [30] was 14.4 µM. It also gave a TGI [31] of 20.5 µM, a TGI [32] of 19.6 µM and a TGI [33] of 32.4 µM. The TGI [34] was > 100 µM, the TGI [35] was > 69.3 µM and the TGI [36] was 22.6 µM. For the same molecule, the TGI [37] was 15.2 µM, the TGI [38] was 11.8 µM and the TGI [59] was 20.2 µM. The TGI [39] was > 100 µM, the TGI [40] was 10.5 µM and the TGI [41] was 15.5 µM. For the same molecule, the TGI [42] was 33.2 µM, the TGI [43] was 10.8 µM and the TGI [46] was 21.9 µM.
With `COC(=O)C1(Cc2ccccc2)Cc2cc3c(cc2C1O)CCC3` (stereo unspecified) the TGI [47] was 36.9 µM, the TGI [2] was > 100 µM and the TGI [48] was 62.9 µM. It also gave a TGI [49] of 31.8 µM, a TGI [50] of 32.6 µM and a TGI [3] of 28.9 µM. It also gave a TGI [51] of 40.2 µM, a TGI [4] of 59 µM and a TGI [5] of 37.3 µM. The TGI [6] was 38.4 µM, the TGI [8] was 60.1 µM and the TGI [9] was 41.3 µM. The TGI [10] was 42.9 µM, the TGI [52] was 38.1 µM and the TGI [11] was 30.7 µM. For the same molecule, the TGI [12] was > 100 µM, the TGI [13] was 30.4 µM and the TGI [14] was 34.4 µM. It also gave a TGI [53] of 48.1 µM, a TGI [15] of 34.6 µM and a TGI [54] of 31.3 µM. It also gave a TGI [16] of 41.7 µM, a TGI [55] of 29.3 µM and a TGI [56] of 76.8 µM. The TGI [18] was 34.7 µM, the TGI [19] was 70.8 µM and the TGI [57] was 54.9 µM. The TGI [20] was 32.5 µM, the TGI [22] was 67.6 µM and the TGI [23] was 36 µM. For the same molecule, the TGI [24] was > 100 µM, the TGI [58] was 32.1 µM and the TGI [25] was 67.2 µM. For the same molecule, the TGI [26] was 48.3 µM, the TGI [27] was 31.9 µM and the TGI [28] was > 100 µM. For the same molecule, the TGI [29] was 30.6 µM, the TGI [30] was 42.9 µM and the TGI [31] was 30 µM. For the same molecule, the TGI [32] was 65.4 µM, the TGI [33] was 60.6 µM and the TGI [34] was 50.4 µM. The TGI [35] was 72 µM, the TGI [36] was > 100 µM and the TGI [38] was 36.7 µM. It also gave a TGI [59] of 32.4 µM, a TGI [39] of 31.9 µM and a TGI [40] of 32.2 µM. The TGI [41] was 31.6 µM, the TGI [42] was 33.3 µM and the TGI [43] was 31.7 µM. For the same molecule, the TGI [44] was 34.7 µM and the TGI [45] was > 100 µM.
In the case of `CC(=O)NC(C)(C)C1CCC(C)CC1` (stereo unspecified), the TGI [1] is reported as > 100 µM, the TGI [47] is reported as > 100 µM and the TGI [2] is reported as > 100 µM. The TGI [49] was > 100 µM, the TGI [50] was > 100 µM and the TGI [3] was > 100 µM. For the same molecule, the TGI [51] was > 100 µM, the TGI [4] was > 100 µM and the TGI [5] was > 100 µM. For the same molecule, the TGI [6] was > 100 µM, the TGI [7] was > 100 µM and the TGI [8] was > 100 µM. The TGI [9] was > 100 µM, the TGI [10] was > 100 µM and the TGI [52] was > 100 µM. For the same molecule, the TGI [11] was > 100 µM, the TGI [12] was > 100 µM and the TGI [13] was > 100 µM. The TGI [53] was > 100 µM, the TGI [15] was > 100 µM and the TGI [54] was > 100 µM. The TGI [16] was > 100 µM, the TGI [55] was > 100 µM and the TGI [56] was > 100 µM. The TGI [18] was > 100 µM, the TGI [19] was > 100 µM and the TGI [57] was > 100 µM. For the same molecule, the TGI [20] was > 100 µM, the TGI [21] was > 100 µM and the TGI [22] was > 100 µM. For the same molecule, the TGI [23] was > 100 µM, the TGI [24] was > 100 µM and the TGI [58] was > 100 µM. For the same molecule, the TGI [25] was > 100 µM, the TGI [26] was > 100 µM and the TGI [27] was > 100 µM. For the same molecule, the TGI [28] was > 100 µM, the TGI [30] was > 100 µM and the TGI [31] was > 100 µM. The TGI [32] was > 100 µM, the TGI [33] was > 100 µM and the TGI [34] was > 100 µM. The TGI [35] was > 100 µM, the TGI [36] was > 100 µM and the TGI [37] was > 100 µM. For the same molecule, the TGI [38] was > 100 µM, the TGI [59] was > 100 µM and the TGI [39] was > 100 µM. The TGI [40] was > 100 µM, the TGI [41] was > 100 µM and the TGI [42] was > 100 µM. For the same molecule, the TGI [43] was > 100 µM, the TGI [44] was > 100 µM and the TGI [45] was > 100 µM. The TGI [46] was > 100 µM.

Reference: PubChem BioAssay (NCI)
